# According to ChEMBL document CHEMBL3351686, “Facile and diastereoselective synthesis of 3,2'-spiropyrrolidine-oxindoles derivatives, their molecular docking and antiproliferative activities” (2015):
# Tests used:
# Salmonella typhimurium [1] = test: Antibacterial activity against Salmonella typhimurium MTCC 1251 assessed as zone of inhibition at 1 mg/disc after 24 hrs by disc diffusion method; type: functional, Salmonella enterica subsp. enterica serovar Typhimurium
# Klebsiella pneumoniae [2] = test: Antibacterial activity against Klebsiella pneumoniae MTCC 109 assessed as zone of inhibition at 1 mg/disc after 24 hrs by disc diffusion method; type: functional
# Proteus vulgaris [3] = test: Antibacterial activity against Proteus vulgaris MTCC 1771 assessed as zone of inhibition at 1 mg/disc after 24 hrs by disc diffusion method; type: functional
# Micrococcus luteus [4] = test: Antibacterial activity against Micrococcus luteus MTCC 106 assessed as zone of inhibition at 1 mg/disc after 24 hrs by disc diffusion method; type: functional
# Klebsiella aerogenes [5] = test: Antibacterial activity against Enterobacter aerogenes MTCC 111 assessed as zone of inhibition at 1 mg/disc after 24 hrs by disc diffusion method; type: functional
# [6] = tested on: Staphylococcus epidermidis; test: Antibacterial activity against Staphylococcus epidermidis MTCC 3615 assessed as zone of inhibition at 1 mg/disc after 24 hrs by disc diffusion method; type: functional
# Staphylococcus aureus [7] = test: Antibacterial activity against Staphylococcus aureus MTCC 96 assessed as zone of inhibition at 1 mg/disc after 24 hrs by disc diffusion method; type: functional
# Staphylococcus aureus [8] = test: Antibacterial activity against methicillin-resistant Staphylococcus aureus assessed as zone of inhibition at 1 mg/disc after 24 hrs by disc diffusion method; type: functional
# Candida albicans [9] = test: Antifungal activity against Candida albicans MTCC 227 assessed as zone of inhibition at 1 mg/disc after 48 hrs by disc diffusion method; type: functional
# Malassezia pachydermatis [10] = test: Antifungal activity against Malassezia pachydermatis assessed as zone of inhibition at 1 mg/disc after 48 hrs by disc diffusion method; type: functional
# Klebsiella pneumoniae [11] = test: Antibacterial activity against Klebsiella pneumoniae MTCC 109 assessed as inhibition of visual growth after 24 hrs; type: functional; settings: MTCC 109, 24 h
# Proteus vulgaris [12] = test: Antibacterial activity against Proteus vulgaris MTCC 1771 assessed as inhibition of visual growth after 24 hrs; type: functional; settings: MTCC 1771, 24 h
# Micrococcus luteus [13] = test: Antibacterial activity against Micrococcus luteus MTCC 106 assessed as inhibition of visual growth after 24 hrs; type: functional; settings: MTCC 106, 24 h
# Klebsiella aerogenes [14] = test: Antibacterial activity against Enterobacter aerogenes MTCC 111 assessed as inhibition of visual growth after 24 hrs; type: functional; settings: MTCC 111, 24 h
# [15] = tested on: Staphylococcus epidermidis; test: Antibacterial activity against Staphylococcus epidermidis MTCC 3615 assessed as inhibition of visual growth after 24 hrs; type: functional; settings: MTCC 3615, 24 h
# Staphylococcus aureus [16] = test: Antibacterial activity against Staphylococcus aureus MTCC 96 assessed as inhibition of visual growth after 24 hrs; type: functional; settings: MTCC 96, 24 h
# Staphylococcus aureus [17] = test: Antibacterial activity against methicillin-resistant Staphylococcus aureus assessed as inhibition of visual growth after 24 hrs; type: functional
# Malassezia pachydermatis [18] = test: Antifungal activity against Malassezia pachydermatis assessed as inhibition of visual growth after 48 to 72 hrs; type: functional
# Shigella flexneri = test: Antibacterial activity against Shigella flexneri MTCC 1457 assessed as zone of inhibition at 1 mg/disc after 24 hrs by disc diffusion method; type: functional
# Salmonella typhimurium [19] = test: Antibacterial activity against Salmonella typhimurium MTCC 1251 assessed as inhibition of visual growth after 24 hrs; type: functional, Salmonella enterica subsp. enterica serovar Typhimurium; settings: Salmonella enterica, MTCC 1251, 24 h
# Candida albicans [20] = test: Antifungal activity against Candida albicans MTCC 227 assessed as inhibition of visual growth after 48 to 72 hrs; type: functional
smiles,measurement,setting,value
N#C[C@]1(C(=O)c2c[nH]c3ccccc23)C2CCCN2[C@]2(C(=O)N(Cc3ccccc3)c3ccccc32)[C@@H]1c1cn(-c2ccccc2)nc1-c1ccccc1 (stereo partly specified),inhibition zone (IZ),Salmonella typhimurium [1],14 mm
same,inhibition zone (IZ),Klebsiella pneumoniae [2],11 mm
same,inhibition zone (IZ),Proteus vulgaris [3],10 mm
same,inhibition zone (IZ),Micrococcus luteus [4],9 mm
same,inhibition zone (IZ),Klebsiella aerogenes [5],8 mm
same,inhibition zone (IZ),[6],15 mm
same,inhibition zone (IZ),Staphylococcus aureus [7],13 mm
same,inhibition zone (IZ),Staphylococcus aureus [8],8 mm
same,inhibition zone (IZ),Candida albicans [9],8 mm
CN1C[C@](C#N)(C(=O)c2c[nH]c3ccccc23)[C@@H](c2cn(-c3ccccc3)nc2-c2ccccc2)[C@@]12C(=O)Nc1ccccc12,inhibition zone (IZ),Klebsiella pneumoniae [2],9 mm
same,inhibition zone (IZ),Proteus vulgaris [3],8 mm
same,inhibition zone (IZ),Micrococcus luteus [4],10 mm
same,inhibition zone (IZ),Klebsiella aerogenes [5],9 mm
same,inhibition zone (IZ),[6],8 mm
same,inhibition zone (IZ),Staphylococcus aureus [7],9 mm
same,inhibition zone (IZ),Staphylococcus aureus [8],8 mm
same,inhibition zone (IZ),Malassezia pachydermatis [10],9 mm
same,MIC,Klebsiella pneumoniae [11],500 mg/L
same,MIC,Proteus vulgaris [12],500 mg/L
same,MIC,Micrococcus luteus [13],250 mg/L
same,MIC,Klebsiella aerogenes [14],500 mg/L
same,MIC,[15],500 mg/L
same,MIC,Staphylococcus aureus [16],500 mg/L
same,MIC,Staphylococcus aureus [17],500 mg/L
same,MIC,Malassezia pachydermatis [18],500 mg/L
N#C[C@]1(C(=O)c2c[nH]c3ccccc23)C2CCCN2[C@]2(C(=O)Nc3ccc(Cl)cc32)[C@@H]1c1cn(-c2ccccc2)nc1-c1ccccc1 (stereo partly specified),inhibition zone (IZ),Salmonella typhimurium [1],8 mm
same,inhibition zone (IZ),Klebsiella pneumoniae [2],9 mm
same,inhibition zone (IZ),Proteus vulgaris [3],10 mm
same,inhibition zone (IZ),Shigella flexneri,10 mm
same,inhibition zone (IZ),Micrococcus luteus [4],9 mm
same,inhibition zone (IZ),Klebsiella aerogenes [5],8 mm
same,inhibition zone (IZ),[6],8 mm
same,inhibition zone (IZ),Staphylococcus aureus [7],9 mm
same,inhibition zone (IZ),Staphylococcus aureus [8],8 mm
same,inhibition zone (IZ),Candida albicans [9],13 mm
same,inhibition zone (IZ),Malassezia pachydermatis [10],11 mm
CN1C[C@](C#N)(C(=O)c2c[nH]c3ccccc23)[C@@H](c2cn(-c3ccccc3)nc2-c2ccccc2)[C@@]12C(=O)Nc1ccc(Cl)cc12,inhibition zone (IZ),Salmonella typhimurium [1],8 mm
same,inhibition zone (IZ),Klebsiella pneumoniae [2],9 mm
same,inhibition zone (IZ),Proteus vulgaris [3],11 mm
same,inhibition zone (IZ),Micrococcus luteus [4],10 mm
same,inhibition zone (IZ),Klebsiella aerogenes [5],9 mm
same,inhibition zone (IZ),[6],8 mm
same,inhibition zone (IZ),Staphylococcus aureus [7],11 mm
same,inhibition zone (IZ),Staphylococcus aureus [8],12 mm
same,inhibition zone (IZ),Candida albicans [9],11 mm
same,inhibition zone (IZ),Malassezia pachydermatis [10],9 mm
CCCCN1C(=O)[C@]2(c3ccccc31)[C@H](c1cn(-c3ccccc3)nc1-c1ccccc1)[C@@](C#N)(C(=O)c1c[nH]c3ccccc13)C1CCCN12 (stereo partly specified),inhibition zone (IZ),Salmonella typhimurium [1],8 mm
same,inhibition zone (IZ),Klebsiella pneumoniae [2],9 mm
same,inhibition zone (IZ),Proteus vulgaris [3],10 mm
same,inhibition zone (IZ),Shigella flexneri,10 mm
same,inhibition zone (IZ),Micrococcus luteus [4],9 mm
same,inhibition zone (IZ),Klebsiella aerogenes [5],11 mm
same,inhibition zone (IZ),[6],10 mm
same,inhibition zone (IZ),Staphylococcus aureus [7],11 mm
same,inhibition zone (IZ),Staphylococcus aureus [8],12 mm
same,MIC,Salmonella typhimurium [19],125 mg/L
same,MIC,Klebsiella pneumoniae [11],250 mg/L
same,MIC,Proteus vulgaris [12],250 mg/L
same,MIC,Micrococcus luteus [13],500 mg/L
same,MIC,Klebsiella aerogenes [14],500 mg/L
same,MIC,[15],62.5 mg/L
same,MIC,Staphylococcus aureus [16],125 mg/L
same,MIC,Staphylococcus aureus [17],500 mg/L
same,MIC,Candida albicans [20],500 mg/L
C#CCN1C(=O)[C@]2(c3ccccc31)[C@H](c1cn(-c3ccccc3)nc1-c1ccccc1)[C@@](C#N)(C(=O)c1c[nH]c3ccccc13)CN2C,inhibition zone (IZ),Klebsiella pneumoniae [2],10 mm
same,inhibition zone (IZ),Proteus vulgaris [3],8 mm
same,inhibition zone (IZ),Micrococcus luteus [4],8 mm
same,inhibition zone (IZ),Klebsiella aerogenes [5],10 mm
same,inhibition zone (IZ),[6],10 mm
same,inhibition zone (IZ),Staphylococcus aureus [7],9 mm
same,inhibition zone (IZ),Staphylococcus aureus [8],8 mm
same,inhibition zone (IZ),Candida albicans [9],10 mm
same,inhibition zone (IZ),Malassezia pachydermatis [10],8 mm
same,MIC,Klebsiella pneumoniae [11],250 mg/L
same,MIC,Proteus vulgaris [12],500 mg/L
same,MIC,Micrococcus luteus [13],500 mg/L
same,MIC,Klebsiella aerogenes [14],250 mg/L
same,MIC,[15],250 mg/L
same,MIC,Staphylococcus aureus [16],500 mg/L
same,MIC,Staphylococcus aureus [17],500 mg/L
same,MIC,Candida albicans [20],125 mg/L
same,MIC,Malassezia pachydermatis [18],500 mg/L
C#CCN1C(=O)[C@]2(c3ccccc31)[C@H](c1cn(-c3ccccc3)nc1-c1ccccc1)[C@@](C#N)(C(=O)c1c[nH]c3ccccc13)C1CSCN12 (stereo partly specified),inhibition zone (IZ),Proteus vulgaris [3],9 mm
same,inhibition zone (IZ),Shigella flexneri,14 mm
same,inhibition zone (IZ),Micrococcus luteus [4],8 mm
same,inhibition zone (IZ),Staphylococcus aureus [8],13 mm
CCCCN1C(=O)[C@]2(c3ccccc31)[C@H](c1cn(-c3ccccc3)nc1-c1ccccc1)[C@@](C#N)(C(=O)c1c[nH]c3ccccc13)CN2C,inhibition zone (IZ),Klebsiella pneumoniae [2],9 mm
same,inhibition zone (IZ),Proteus vulgaris [3],8 mm
same,inhibition zone (IZ),Micrococcus luteus [4],11 mm
same,inhibition zone (IZ),Klebsiella aerogenes [5],13 mm
same,inhibition zone (IZ),[6],9 mm
same,inhibition zone (IZ),Candida albicans [9],9 mm
same,inhibition zone (IZ),Malassezia pachydermatis [10],11 mm
same,MIC,Klebsiella pneumoniae [11],500 mg/L
same,MIC,Proteus vulgaris [12],500 mg/L
same,MIC,Micrococcus luteus [13],250 mg/L
same,MIC,Klebsiella aerogenes [14],125 mg/L
same,MIC,[15],500 mg/L
same,MIC,Candida albicans [20],500 mg/L
same,MIC,Malassezia pachydermatis [18],250 mg/L
CN1C(=O)[C@]2(c3ccccc31)[C@H](c1cn(-c3ccccc3)nc1-c1ccccc1)[C@@](C#N)(C(=O)c1c[nH]c3ccccc13)CN2C,inhibition zone (IZ),Klebsiella pneumoniae [2],8 mm
same,inhibition zone (IZ),Proteus vulgaris [3],10 mm
same,inhibition zone (IZ),Micrococcus luteus [4],10 mm
same,inhibition zone (IZ),Klebsiella aerogenes [5],8 mm
same,inhibition zone (IZ),[6],8 mm
same,inhibition zone (IZ),Candida albicans [9],11 mm
same,inhibition zone (IZ),Malassezia pachydermatis [10],10 mm
same,MIC,Klebsiella pneumoniae [11],500 mg/L
same,MIC,Proteus vulgaris [12],250 mg/L
same,MIC,Micrococcus luteus [13],500 mg/L
same,MIC,Klebsiella aerogenes [14],500 mg/L
same,MIC,[15],500 mg/L
same,MIC,Candida albicans [20],250 mg/L
same,MIC,Malassezia pachydermatis [18],500 mg/L
C=CCN1C(=O)[C@]2(c3ccccc31)[C@H](c1cn(-c3ccccc3)nc1-c1ccccc1)[C@@](C#N)(C(=O)c1c[nH]c3ccccc13)CN2C,inhibition zone (IZ),Klebsiella pneumoniae [2],10 mm
same,inhibition zone (IZ),Proteus vulgaris [3],8 mm
same,inhibition zone (IZ),Micrococcus luteus [4],12 mm
same,inhibition zone (IZ),Klebsiella aerogenes [5],11 mm
same,inhibition zone (IZ),[6],10 mm
same,inhibition zone (IZ),Staphylococcus aureus [7],11 mm
same,inhibition zone (IZ),Staphylococcus aureus [8],8 mm
same,inhibition zone (IZ),Malassezia pachydermatis [10],11 mm
same,MIC,Klebsiella pneumoniae [11],125 mg/L
same,MIC,Proteus vulgaris [12],500 mg/L
same,MIC,Micrococcus luteus [13],250 mg/L
same,MIC,Klebsiella aerogenes [14],250 mg/L
same,MIC,[15],250 mg/L
same,MIC,Staphylococcus aureus [16],250 mg/L
same,MIC,Staphylococcus aureus [17],500 mg/L
same,MIC,Malassezia pachydermatis [18],250 mg/L
N#C[C@]1(C(=O)c2c[nH]c3ccccc23)C2CSCN2[C@]2(C(=O)Nc3ccc([N+](=O)[O-])cc32)[C@@H]1c1cn(-c2ccccc2)nc1-c1ccccc1 (stereo partly specified),inhibition zone (IZ),Proteus vulgaris [3],8 mm
CN1C(=O)[C@]2(c3ccccc31)[C@H](c1cn(-c3ccccc3)nc1-c1ccccc1)[C@@](C#N)(C(=O)c1c[nH]c3ccccc13)C1CSCN12 (stereo partly specified),MIC,Salmonella typhimurium [19],500 mg/L
same,MIC,Klebsiella pneumoniae [11],500 mg/L
same,MIC,Proteus vulgaris [12],500 mg/L
same,MIC,Micrococcus luteus [13],250 mg/L
same,MIC,Klebsiella aerogenes [14],500 mg/L
same,MIC,[15],125 mg/L
same,MIC,Staphylococcus aureus [16],500 mg/L
CN1C[C@](C#N)(C(=O)c2c[nH]c3ccccc23)[C@@H](c2cn(-c3ccccc3)nc2-c2ccccc2)[C@@]12C(=O)N(Cc1ccccc1)c1ccccc12,inhibition zone (IZ),Klebsiella pneumoniae [2],11 mm
same,inhibition zone (IZ),Proteus vulgaris [3],10 mm
same,inhibition zone (IZ),Micrococcus luteus [4],9 mm
same,inhibition zone (IZ),Klebsiella aerogenes [5],10 mm
same,inhibition zone (IZ),[6],8 mm
same,inhibition zone (IZ),Staphylococcus aureus [7],9 mm
same,inhibition zone (IZ),Staphylococcus aureus [8],8 mm
same,inhibition zone (IZ),Candida albicans [9],8 mm
same,inhibition zone (IZ),Malassezia pachydermatis [10],9 mm
same,MIC,Klebsiella pneumoniae [11],250 mg/L
same,MIC,Proteus vulgaris [12],250 mg/L
same,MIC,Micrococcus luteus [13],500 mg/L
same,MIC,Klebsiella aerogenes [14],500 mg/L
same,MIC,[15],500 mg/L
same,MIC,Staphylococcus aureus [16],500 mg/L
same,MIC,Staphylococcus aureus [17],500 mg/L
same,MIC,Candida albicans [20],500 mg/L
same,MIC,Malassezia pachydermatis [18],500 mg/L
